One data set has as its target CYP2D6 (Homo sapiens (Human), UniProt P10635). Nature of the data set: Human Cytochrome P450 Inhibition Assay (Bactosomes). The data set is classed as in vitro ADME. To be noted: recombinant Bactosomes, 10 minutes.
A further data set deals with CYP3A4 (Homo sapiens (Human), UniProt P08684). The description is as above. The data set is classed as in vitro ADME. The note with it: recombinant Bactosomes, 10 minutes.
The target in another data set is CYP2C19 (Homo sapiens (Human), UniProt P33261). The description is as above. The data set is classed as in vitro ADME. To be noted: recombinant Bactosomes, 10 minutes.
Chain of CYP2C19 (P33261 whole entry): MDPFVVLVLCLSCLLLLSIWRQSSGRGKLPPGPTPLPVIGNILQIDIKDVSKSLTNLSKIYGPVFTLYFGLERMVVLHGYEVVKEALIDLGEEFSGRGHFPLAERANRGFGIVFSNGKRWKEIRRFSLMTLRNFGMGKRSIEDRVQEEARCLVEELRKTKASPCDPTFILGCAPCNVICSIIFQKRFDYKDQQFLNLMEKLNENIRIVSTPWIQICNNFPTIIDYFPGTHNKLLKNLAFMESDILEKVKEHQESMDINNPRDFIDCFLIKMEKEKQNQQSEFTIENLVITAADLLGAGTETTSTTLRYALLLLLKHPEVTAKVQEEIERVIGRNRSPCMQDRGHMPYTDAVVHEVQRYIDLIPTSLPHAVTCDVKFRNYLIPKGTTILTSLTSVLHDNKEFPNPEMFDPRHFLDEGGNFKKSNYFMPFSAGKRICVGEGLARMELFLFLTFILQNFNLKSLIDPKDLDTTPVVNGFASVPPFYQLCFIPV
In a further data set the target is CYP1A2 (Homo sapiens (Human), UniProt P05177). The description is as above. The data set is classed as in vitro ADME. To be noted: recombinant enzyme.
Chain of CYP1A2 (P05177 whole entry): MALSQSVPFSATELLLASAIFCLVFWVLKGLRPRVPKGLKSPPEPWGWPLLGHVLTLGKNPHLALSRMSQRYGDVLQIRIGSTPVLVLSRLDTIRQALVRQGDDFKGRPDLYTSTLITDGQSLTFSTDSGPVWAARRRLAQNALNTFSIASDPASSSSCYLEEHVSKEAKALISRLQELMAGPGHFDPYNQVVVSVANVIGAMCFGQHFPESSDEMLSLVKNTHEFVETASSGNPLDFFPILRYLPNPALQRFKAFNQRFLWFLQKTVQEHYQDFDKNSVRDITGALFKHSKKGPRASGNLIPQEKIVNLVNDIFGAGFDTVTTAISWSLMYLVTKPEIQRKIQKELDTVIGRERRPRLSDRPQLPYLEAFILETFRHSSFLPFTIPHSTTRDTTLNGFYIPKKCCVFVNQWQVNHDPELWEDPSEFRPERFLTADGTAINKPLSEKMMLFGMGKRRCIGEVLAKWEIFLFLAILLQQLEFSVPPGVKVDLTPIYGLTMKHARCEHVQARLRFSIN
The target of the next data set is CYP2C9 (Homo sapiens (Human), UniProt P11712). The data set is described as above. The data set is classed as in vitro ADME. To be noted: recombinant Bactosomes, 10 minutes.
Chain of CYP2C9 (P11712 whole entry): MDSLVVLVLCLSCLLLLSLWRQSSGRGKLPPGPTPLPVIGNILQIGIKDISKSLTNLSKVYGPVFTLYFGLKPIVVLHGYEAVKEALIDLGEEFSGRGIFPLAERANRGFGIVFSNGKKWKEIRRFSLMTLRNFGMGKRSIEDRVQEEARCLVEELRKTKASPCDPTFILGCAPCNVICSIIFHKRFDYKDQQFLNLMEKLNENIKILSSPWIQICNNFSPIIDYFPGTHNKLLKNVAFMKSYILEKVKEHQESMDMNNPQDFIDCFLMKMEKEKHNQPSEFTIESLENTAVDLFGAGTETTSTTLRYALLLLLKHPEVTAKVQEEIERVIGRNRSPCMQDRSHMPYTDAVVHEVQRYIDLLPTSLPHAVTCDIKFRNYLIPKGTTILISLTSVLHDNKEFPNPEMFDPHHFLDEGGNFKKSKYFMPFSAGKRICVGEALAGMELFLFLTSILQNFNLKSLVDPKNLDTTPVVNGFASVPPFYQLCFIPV
Data set [1] relates to Thp1 human monocytic cells. Nature of the data set: Thp1 Monocyte ATP Production Assay (ATPlite). The data set is classed as cell-based. The note with it: for IC50: Thp1 cells, 24 hour incubation, 9-point concentration range from 10 μM to 10 nM, mean of 2 independent experiments; for potency in the Thp1 monocytic ATP assay (in words): as compared to the reference compounds. The method in brief: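 Thp1 cells in glucose-free RPMI-1640 with 1% FBS were treated with compounds for 24 h at 37 °C/5% CO2, then ATP measured by ATPlite luminescence. Signal expressed as % of control viability; IC50 from 4-parameter fit, mean of two experiments.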
A general note: In ATP-based viability assays light output follows the ATP content of the culture.

Chain of CYP2D6 (P10635 whole entry): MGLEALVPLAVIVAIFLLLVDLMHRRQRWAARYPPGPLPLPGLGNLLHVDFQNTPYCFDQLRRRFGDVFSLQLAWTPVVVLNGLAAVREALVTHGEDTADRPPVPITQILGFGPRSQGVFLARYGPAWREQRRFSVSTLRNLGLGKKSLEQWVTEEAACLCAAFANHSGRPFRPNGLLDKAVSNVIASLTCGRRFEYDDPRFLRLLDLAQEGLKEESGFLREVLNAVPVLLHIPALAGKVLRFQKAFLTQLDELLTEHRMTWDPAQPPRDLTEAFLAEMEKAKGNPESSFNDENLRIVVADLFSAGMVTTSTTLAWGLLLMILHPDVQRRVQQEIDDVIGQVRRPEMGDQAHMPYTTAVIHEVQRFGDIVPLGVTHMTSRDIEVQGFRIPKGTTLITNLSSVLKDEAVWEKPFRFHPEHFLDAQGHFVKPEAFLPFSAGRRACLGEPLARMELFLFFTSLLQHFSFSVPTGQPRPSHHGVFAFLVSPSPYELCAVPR
Chain of CYP3A4 (P08684 whole entry): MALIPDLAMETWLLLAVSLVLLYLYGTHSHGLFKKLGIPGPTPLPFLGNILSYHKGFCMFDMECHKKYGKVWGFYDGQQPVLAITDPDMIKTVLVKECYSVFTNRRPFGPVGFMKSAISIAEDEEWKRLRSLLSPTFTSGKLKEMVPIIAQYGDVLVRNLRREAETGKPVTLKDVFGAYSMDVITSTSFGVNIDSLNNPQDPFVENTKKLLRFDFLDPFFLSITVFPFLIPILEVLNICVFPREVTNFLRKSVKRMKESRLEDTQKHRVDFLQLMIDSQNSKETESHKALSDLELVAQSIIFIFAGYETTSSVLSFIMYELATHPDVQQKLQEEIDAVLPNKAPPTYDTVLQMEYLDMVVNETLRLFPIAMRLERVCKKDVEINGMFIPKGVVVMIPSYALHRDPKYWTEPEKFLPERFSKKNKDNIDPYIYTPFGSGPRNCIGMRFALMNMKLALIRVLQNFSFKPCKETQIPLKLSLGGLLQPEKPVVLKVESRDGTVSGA

In general, IC50 refers to the concentration needed to halve the response being measured. On to `CC1(O)CCC(NS(=O)(=O)c2ccc(-c3ccc(F)cc3F)cc2)CC1` (stereo not shown) [ABD899, reference compound], for which the IC50 on CYP2D6 is 45.3 µM; at CYP3A4 it was 21.6 µM; at CYP2C19 it was 7.3 µM; at CYP1A2, over 25 µM; at CYP2C9, 3.9 µM; in data set [1], 0.2 µM.

On to `CC(=O)N1CCC(CS(=O)(=O)c2ccc(-c3ccc(F)cc3F)cc2)CC1` [NASMP-01, 1-(4-(((2′,4′-Difluoro-[1,1′-biphenyl]-4-yl)sulfonyl)methyl)piperidin-1-yl)ethan-1-one], for which the IC50 on CYP2D6 is over 50 µM; on CYP3A4, over 50 µM; at CYP2C19, over 50 µM; on CYP1A2 (human, 10 min, pH 7.4), over 50 µM; at CYP2C9 it was over 50 µM; in data set [1] (Homo sapiens, THP-1), 1 µM. Moreover, in data set [1], the “potency in the Thp1 monocytic ATP assay (in words)” value (“potency” below) was “excellent potency”.

Regarding `CC(=O)N1CCC(CS(=O)(=O)c2ccc(-c3ccc(C#N)cc3Cl)cc2)CC1` [NASMP-05, 4′-(((1-Acetylpiperidin-4-yl)methyl)sulfonyl)-2-chloro-[1,1′-biphenyl]-4-carbonitrile], the IC50 is over 50 µM on CYP2D6; over 50 µM at CYP3A4; over 50 µM at CYP2C19; over 50 µM at CYP1A2 (human, 10 min, pH 7.4); over 50 µM at CYP2C9; 1.1 µM in data set [1] (Homo sapiens, THP-1).

`CC(=O)N1CCC(CS(=O)(=O)c2ccc(-c3ccc(Cl)cc3C#N)cc2)CC1` [NASMP-06, 4′-(((1-Acetylpiperidin-4-yl)methyl)sulfonyl)-4-chloro-[1,1′-biphenyl]-2-carbonitrile]: the IC50 at CYP2D6 is over 50 µM; at CYP3A4 it was over 50 µM; on CYP2C19, over 50 µM; on CYP1A2 (human, 10 min, pH 7.4) it was over 50 µM; on CYP2C9 it was 42.7 µM; in data set [1] (Homo sapiens, THP-1) it was 0.9 µM.

Turning to `CC(=O)N1CCC(CS(=O)(=O)c2ccc(-c3ccc(C(F)(F)F)cc3F)cc2)CC1` [NASMP-07, 1-(4-(((2′-Fluoro-4′-(trifluoromethyl)-[1,1′-biphenyl]-4-yl)sulfonyl)methyl)piperidin-1-yl)ethan-1-one], the IC50 is over 50 µM on CYP2D6; over 50 µM on CYP3A4; 36.4 µM at CYP2C19; over 50 µM on CYP1A2 (human, 10 min, pH 7.4); 19.6 µM on CYP2C9; 0.8 µM in data set [1] (Homo sapiens, THP-1). Besides, in data set [1], the “potency” value is “excellent potency”.

With `CC(=O)N1CCC(CS(=O)(=O)c2ccc(-c3c(F)cccc3F)cc2)CC1` [NASMP-09, 1-(4-(((2′,6′-Difluoro-[1,1′-biphenyl]-4-yl)sulfonyl)methyl)piperidin-1-yl)ethan-1-one], the IC50 at CYP2D6 is over 50 µM; at CYP3A4 it was 44.5 µM; at CYP2C19 it was 17.8 µM; at CYP1A2 (human, 10 min, pH 7.4), over 50 µM; at CYP2C9, over 50 µM; in data set [1] (Homo sapiens, THP-1), 1.4 µM.

Regarding `CC(=O)N1CCC(CS(=O)(=O)c2ccc(-c3ccc(F)cc3F)cc2C(F)(F)F)CC1` [NASMP-12, 1-(4-(((2′,4′-Difluoro-3-(trifluoromethyl)-[1,1′-biphenyl]-4-yl)sulfonyl)methyl)piperidin-1-yl)ethan-1-one], the IC50 was 45.4 µM at CYP2D6; over 50 µM at CYP3A4; over 50 µM at CYP2C19; over 50 µM on CYP1A2 (human, 10 min, pH 7.4); 15.4 µM at CYP2C9; 0.1 µM in data set [1] (Homo sapiens, THP-1). The “potency” value in data set [1] was “excellent potency”.

Turning to `CCC(=O)N1CCC(CS(=O)(=O)c2ccc(-c3ccc(F)cc3F)cc2)CC1` [NASMP-15, 1-(4-(((2′,4′-Difluoro-[1,1′-biphenyl]-4-yl)sulfonyl)methyl)piperidin-1-yl)propan-1-one], the IC50 on CYP2D6 was over 50 µM; at CYP3A4, over 50 µM; at CYP2C19 it was over 50 µM; on CYP1A2 (human, 10 min, pH 7.4) it was over 50 µM; at CYP2C9 it was 21.5 µM; in data set [1] (Homo sapiens, THP-1), 0.6 µM. In data set [1], the “potency” value is listed as “excellent potency”.
